The values that follow come from patent publication US9926281B2 (priority 2014, dated 2018).

Like-named read-outs stand apart in the source and are kept apart here. Some results are limits rather than exact numbers.

One assay deals with rnADAMTS-5 (1-564-6H) (Rattus norvegicus, UniProt Q6TY19). The note with it: read-out: Rat ADAMTS-5 potency IC50.
The target in assay [1] is T1, human ADAMTS-5 (Homo sapiens (Human), UniProt Q9UNA0). The settings on record: read-out: hADAMTS-5 potency IC50.
The target in assay [2] is T2, human TACE (Homo sapiens (Human), UniProt P78536). The note with it: read-out: TACE potency IC50.
The target in assay [3] is T3, human MMP13 (Homo sapiens (Human), UniProt P45452). The settings on record: read-out: hMMP-13 potency IC50.
Description: The reaction is initiated by adding to the assay plate 520 MMP-fret substrate XV (10 μL, 4 μM) in the same buffer.
Assay [4] addresses T1, human ADAMTS-5. The assay can be described thus: biochemical.
Description: Finally, the fluorescence is read on the Envision (Perkin Elmer) after an incubation of 90 min at 37° C.
For assay [5], the target named is T2, human TACE. The assay can be described thus: biochemical.
The target of assay [6] is T3, human MMP13. Kind of assay: biochemical.
Description: Human MMP13 is preactivated by incubated the enzyme in the same buffer complemented with 1 mM freshly prepared p-Aminophenylmercuric acetate (AMPA) for 1 hour at 37° C.

T1 sequence (Q9UNA0 262-930): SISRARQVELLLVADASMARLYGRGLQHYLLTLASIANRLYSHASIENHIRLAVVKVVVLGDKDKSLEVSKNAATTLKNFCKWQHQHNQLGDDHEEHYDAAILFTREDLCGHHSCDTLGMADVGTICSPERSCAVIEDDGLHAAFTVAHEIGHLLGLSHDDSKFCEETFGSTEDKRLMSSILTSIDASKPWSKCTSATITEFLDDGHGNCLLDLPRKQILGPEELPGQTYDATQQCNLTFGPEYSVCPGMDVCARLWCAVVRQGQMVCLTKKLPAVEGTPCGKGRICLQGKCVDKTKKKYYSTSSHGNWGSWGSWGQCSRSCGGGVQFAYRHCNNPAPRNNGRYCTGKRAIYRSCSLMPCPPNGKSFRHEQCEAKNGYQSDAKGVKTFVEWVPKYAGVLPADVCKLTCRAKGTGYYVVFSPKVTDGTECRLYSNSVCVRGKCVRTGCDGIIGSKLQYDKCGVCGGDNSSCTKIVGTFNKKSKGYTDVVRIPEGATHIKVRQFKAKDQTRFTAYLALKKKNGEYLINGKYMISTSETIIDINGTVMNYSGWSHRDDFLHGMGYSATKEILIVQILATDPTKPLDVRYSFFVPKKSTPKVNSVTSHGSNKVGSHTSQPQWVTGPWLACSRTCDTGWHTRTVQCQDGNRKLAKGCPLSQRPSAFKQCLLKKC
T2 sequence (P78536 whole entry, looked up, change not shown): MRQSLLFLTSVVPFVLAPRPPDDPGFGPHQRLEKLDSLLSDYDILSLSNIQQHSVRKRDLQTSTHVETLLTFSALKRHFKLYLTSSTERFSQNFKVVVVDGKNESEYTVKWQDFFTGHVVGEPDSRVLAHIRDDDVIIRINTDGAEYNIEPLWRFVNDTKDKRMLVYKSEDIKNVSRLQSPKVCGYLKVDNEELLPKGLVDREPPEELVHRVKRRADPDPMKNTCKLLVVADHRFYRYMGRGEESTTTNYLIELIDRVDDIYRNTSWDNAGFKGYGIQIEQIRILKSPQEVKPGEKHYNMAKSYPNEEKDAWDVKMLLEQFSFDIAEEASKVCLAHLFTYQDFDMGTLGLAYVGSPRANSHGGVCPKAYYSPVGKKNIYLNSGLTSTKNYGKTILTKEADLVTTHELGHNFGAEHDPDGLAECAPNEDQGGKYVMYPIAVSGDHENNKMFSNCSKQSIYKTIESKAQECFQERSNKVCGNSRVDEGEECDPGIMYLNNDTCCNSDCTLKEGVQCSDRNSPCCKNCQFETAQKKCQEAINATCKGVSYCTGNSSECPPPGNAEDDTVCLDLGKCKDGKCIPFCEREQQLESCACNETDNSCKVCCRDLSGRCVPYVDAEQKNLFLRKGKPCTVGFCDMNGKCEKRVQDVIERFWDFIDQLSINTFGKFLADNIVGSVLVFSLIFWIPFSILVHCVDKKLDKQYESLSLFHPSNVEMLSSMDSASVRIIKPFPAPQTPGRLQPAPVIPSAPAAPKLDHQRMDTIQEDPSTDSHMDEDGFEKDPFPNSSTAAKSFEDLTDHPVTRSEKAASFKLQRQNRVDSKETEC

With `O=C1NC(=O)C(CCC(=O)N2CCN(c3ccccc3Cl)CC2)(c2ccccc2)N1` (centres unmarked) [compound 20, 5-[3-[4-(2-chlorophenyl)piperazin-1-yl]-3-oxo-propyl]-5-phenyl-imidazolidine-2,4-dione], the IC50 on rnADAMTS-5 (1-564-6H) is 1.27 µM; at human ADAMTS-5 [1], 1.28 µM; on human TACE [2], > 4 µM; at human MMP13 [3] it was > 20 µM.

Regarding `Cc1c(Cl)cccc1N1CCN(C(=O)CCC2(c3ccccc3)NC(=O)NC2=O)CC1` (centres unmarked) [compound 21, 5-[3-[4-(3-chloro-2-methyl-phenyl)piperazin-1-yl]-3-oxo-propyl]-5-phenyl-imidazolidine-2,4-dione], the IC50 at rnADAMTS-5 (1-564-6H) was 0.162 µM; at human ADAMTS-5 [1], 0.166 µM; on human TACE [2], 2.06 µM; on human MMP13 [3] it was > 20 µM.

With `C[C@H]1CN(C(=O)CCC2(C)NC(=O)NC2=O)CCN1c1ccc(Cl)c(F)c1` (stereo partly drawn) [compound 164, 5-[3-[(3S)-4-(4-chloro-3-fluoro-phenyl)-3-methyl-piperazin-1-yl]-3-oxo-propyl]-5-methyl-imidazolidine-2,4-dione], the IC50 at human ADAMTS-5 [4] is 0.236 µM; against human TACE [5] it was > 20 µM; at human MMP13 [6], > 20 µM.

As to `C[C@H]1CN(C(=O)CCC2(C3CC3)NC(=O)NC2=O)CCN1c1cccc2c1cnn2C` (stereo partly drawn) [compound 333, 5-cyclopropyl-5-[3-[(3S)-3-methyl-4-(1-methylindazol-4-yl)piperazin-1-yl]-3-oxo-propyl]imidazolidine-2,4-dione], the IC50 at human ADAMTS-5 [4] is 3.12 µM; against human TACE [5], > 20 µM.

Take `C[C@H]1CN(C(=O)CCC2(c3ccc(C(F)(F)F)nc3)NC(=O)NC2=O)CCN1c1cc(F)cc(F)c1` (stereo partly drawn) [compound 335, 5-[3-[(3S)-4-(3,5-difluorophenyl)-3-methyl-piperazin-1-yl]-3-oxo-propyl]-5-[6-(trifluoromethyl)-3-pyridyl]imidazolidine-2,4-dione]: the IC50 on human ADAMTS-5 [4] is 0.078 µM; against human TACE [5], > 4 µM.

Take `COCC1(CC(C)C(=O)N2CCN(c3cncc(F)c3)[C@@H](C)C2)NC(=O)NC1=O` (stereo partly drawn) [compound 364, 5-[3-[(3S)-4-(5-fluoro-3-pyridyl)-3-methyl-piperazin-1-yl]-2-methyl-3-oxo-propyl]-5-(methoxymethyl)imidazolidine-2,4-dione]: the IC50 against human ADAMTS-5 [4] is 0.092 µM; against human TACE [5], > 20 µM.
